This note sets out measurements from paper PMC12679539, “Synthesis and evaluation of nitroheterocyclic aromatic adamantane amides with trypanocidal activity. Part II” (RSC Medicinal Chemistry, 2025).

The test system of data set [1] is bloodstream-form Trypanosoma brucei. Kind of data set: Activity against bloodstream-form Trypanosoma brucei (Alamar Blue growth inhibition). The format is cell-based, Trypanosoma brucei (strain 427). The note with it: for IC50 / IC90: Trypanosoma brucei, bloodstream form; for IC50: concentration that inhibits growth by 50%, read-out: T. brucei IC50; for IC90: concentration that inhibits growth by 90%, read-out: T. brucei IC90; for S.I. (selectivity index): ratio of IC50 values obtained with L6 cells and T. brucei. As for the experimental part:
Bloodstream form T. brucei (strain 427) were cultured at 37 °C in modified Iscove's medium. Trypanocidal activity was assessed by growing parasites in microtiter plates in the presence of various drug concentrations. […] The plates were incubated for 48 hours at 37 °C and 20 μL Alamar Blue was then added to each well. After an additional overnight incubation, the fluorescence was determined using a Gemini fluorescent plate reader (Molecular Devices). Inhibition of growth was calculated by comparison with control values and IC50 and IC90 values were determined in triplicate using linear regression analysis.
On the technique in general: The colour change of resazurin is a common sign of viable cells or microbes.

For data set [2], the system named is L. infantum intracellular amastigotes. As to the kind of experiment: Activity against intracellular L. infantum amastigotes in THP-1 derived macrophages (luciferase). The format is cell-based, Leishmania infantum (MHOM/MA/67/ITMAP-263). The conditions noted are these: Leishmania infantum; for inhibition at 10 µM: THP-1, 72 h, read-out: L. infantum (intracellular amastigotes) % of growth inhibition at 10 μM ± ST DEV. On the procedure:
Leishmania infantum Luciferase-expressing L. infantum (strain MHOM/MA/67/ITMAP-263) axenic amastigotes were cultured in MAA/20 medium at 37 °C with 5% CO2, as described by Sereno et al. 1998.[26] The parasites were maintained in 5 mL T25 ventilated flasks and subcultured every seven days at a concentration of 1 × 10^6 cells per mL.
The activity against intracellular amastigotes of L. infantum was evaluated using a modified method described by Santarem, Tavares, and Cordeiro-da-Silva (2019).[27] THP-1 cells were differentiated into macrophages using PMA, as previously outlined. The differentiated macrophages were then infected with L. infantum axenic amastigotes expressing episomal luciferase at a macrophage-to-amastigote ratio of 1 : 10 for four hours at 37 °C in a 5% CO2 atmosphere. After this incubation, non-internalized parasites were washed away, and various concentrations of test compounds were added in a final volume of 100 μL. A dose–response curve for miltefosine was included in all assays to serve as a quality control. Each experimental condition was tested in quadruplicate. After 72 hours of incubation, the medium was replaced with 100 μL of PBS, and 25 μL of Glo-lysis buffer from the Steady-Glo Luciferase Assay System (Promega, Madison, WI, USA) was added. The plates were then agitated at 100 rpm for 10 minutes at room temperature. Following this, 30 μL of the Steady-Glo reagent (Promega, Madison, WI, USA) was added, and the mixture was incubated for 15 minutes in the dark under the same conditions. A total of 140 μL from each well was transferred to white-bottom 96-well plates, and luminescence intensity was measured using a Synergy 2 Multi-Mode Reader (Biotek, Winooski, VT, USA). The antileishmanial effect was assessed by comparing the results with those from non-treated infected cells. The IC50 value were determined through non-linear regression analysis using GraphPad Prism version 8.1.1 for Windows (GraphPad Software, San Diego, CA, USA). Results represent the average of at least three independent experiments.

The test system of another data set is T. cruzi epimastigotes. Kind of data set: Activity against Trypanosoma cruzi epimastigotes (Alamar Blue growth inhibition). The format is cell-based, Trypanosoma cruzi (strain CL Brener). The conditions noted are these: CL Brener. On the procedure:
Trypanocidal activity was assessed by growing parasites in microtiter plates in the presence of various drug concentrations. […] The plates were incubated for 4 days at 28 °C and 20 μL Alamar Blue (Biosource UK Ltd) was then added to each well. After an additional 3 days incubation, the fluorescence was determined using a Gemini fluorescent plate reader (Molecular Devices). Inhibition of growth was calculated by comparison with control values and IC50 and IC90 values were determined in triplicate using linear regression analysis.

Data set [3] deals with T. cruzi intracellular amastigotes. Kind of data set: microbe, parasite or virus in culture. The format is cell-based, Trypanosoma cruzi CL Brener PpyRE9h:mScarlet. The note with it: Trypanosoma cruzi, 120 h; in HeLa cells, 5 days. As for the experimental part:
Assays were performed in 96-well black (clear bottom) microtitre plates (Corning Inc.). HeLa ^† cells were seeded at 10^4 per well, incubated for 3 days, and then infected with T. cruzi CL Brener PpyRE9h : mScarlet[25] culture form trypomastigotes (1 : 1 multiplicity of infection). After 16 hours, extracellular parasites were removed by washing in growth medium (×3), test compounds were added, and the plates incubated for 5 days. Fluorescence intensities were then determined using a BMG FLUOstar Omega plate reader (ex 545 nm, em 590 nm), and the data analysed using GraphPad Prism 9.0 software. The values were expressed as IC50/90 ± SD and are the mean of triplicate experiments.

The nature of data set [4]: Cytotoxicity on THP-1-derived macrophages (MTT assay). The format is cell-based. The note with it: human, THP-1-derived macrophages (PMA-differentiated), value or interval. As for the experimental part:
The THP-1 cell line, a human leukemia line (ATCC® TIB-202™), was cultured in RPMI-1640 medium supplemented with 10% heat-inactivated fetal bovine serum (FBS), 2 mM. L-Glutamine, 100 IU mL^−1 penicillin/streptomycin, and 20 mM HEPES. The cells were maintained in a humidified incubator at 37 °C with 5% CO2. Subculturing was performed every three days, using 20 mL of media at a concentration of 2 × 10^5 cells per mL in a T75 flask. All cell culture reagents were purchased from Lonza Bioscience (Morrisville, NC).
The cytotoxicity of the compounds on THP-1-derived macrophages was evaluated using the colorimetric MTT assay (3-(4,5-dimethylthiazol-2-yl)-2,5-diphenyltetrazolium bromide), as described in Magoulas et al. (2021).[28] THP-1 cells were suspended in complete RPMI medium at a density of 1 × 10^6 cells per mL, and 100 μL of this suspension was seeded into each well of a 96-well plate. The cells were differentiated into macrophages by adding 40 ng mL^−1 of phorbol-myristate 13-acetate (PMA, Sigma, Saint Louis, MI, USA) for 24 hours, followed by replacement with fresh medium for an additional 24 hours. Subsequently, the cells were incubated with 100 μL of various compounds, diluted in complete RPMI medium, at concentrations ranging from 100 to 12.5 μM. Each condition was tested in triplicate. After 72 hours of incubation at 37 °C with 5% CO2, the medium was removed, and 200 μL of a 0.5 mg mL^−1 MTT solution, diluted in RPMI, was added to each well. The plates were incubated for an additional 4 hours. Following this incubation, 160 μL of the medium was removed and replaced with 160 μL of 2-propanol. Absorbance was measured at 570 nm using a Synergy 2 Multi-Mode Reader (Biotek, Winooski, VT, USA). Cytotoxicity was determined by presenting the CC50 (the concentration of the drug that reduces cell viability by 50%) interval or by calculating the CC50 value through non-linear regression analysis using GraphPad Prism version 8.1.1 for Windows (GraphPad Software, San Diego, CA, USA). The results represent the average of at least three independent experiments.
For orientation: Formazan colour is commonly taken as a measure of viable cells.

As a reminder, the IC50 is the concentration at which inhibition is half-maximal. In general, IC90 refers to the concentration at which the effect reaches the 90% level. A word on the inhibition: it is the change of the read-out against control, counted positive when it falls. As a reminder, the CC50 is the concentration at which the toxic effect on the cells reaches its halfway point. `O=C(Cc1ccc(C23CC4CC(CC(C4)C2)C3)cc1)NCCn1cnc([N+](=O)[O-])n1` [6b, 2-[4-(1-Adamantyl)phenyl]-N-[2-(3-nitro-1H-1,2,4-triazol-1-yl)ethyl]acetamide]: in data set [1], the IC50 came out at 420 ± 70 nM, the IC90 came to 1800 ± 200 nM and the “S.I. (selectivity index)” value worked out at 72. Also, in data set [2], the inhibition at 10 µM was 50.1 ± 23%. Besides, in the data set with T. cruzi epimastigotes, half-maximal inhibition (IC50) was put at 200 ± 30 nM and it took 660 ± 40 nM to reach the 90% level (IC90). Besides, in data set [3], the IC50 amounted to 1830 ± 700 nM and the 90% effect level (IC90) was put at 4290 ± 310 nM. In addition, in data set [4], the CC50 at 72 h was in the range of 50000 to 100000 nM.

Take `O=C(CCc1ccc(C23CC4CC(CC(C4)C2)C3)cc1)NCCn1cnc([N+](=O)[O-])n1` [6c, 3-[4-(1-Adamantyl)phenyl]-N-[2-(3-nitro-1H-1,2,4-triazol-1-yl)ethyl]propanamide]: in data set [1], the IC50 was 200 ± 20 nM, the concentration for an effect of 90% (IC90) was 320 ± 10 nM and the “S.I. (selectivity index)” value is 114. Moreover, the inhibition at 10 µM in data set [2] amounted to 47.6 ± 16.3%. Further, in the data set on T. cruzi epimastigotes, the IC50 was found to be 450 ± 20 nM and the 90% effect level (IC90) was put at 1200 ± 20 nM. In data set [3], inhibition was half-maximal at 1580 ± 70 nM (IC50) and the IC90 was determined as 3230 ± 850 nM. Moreover, the CC50 at 72 h in data set [4] was above 100000 nM.

For the molecule `O=C(Cc1ccc(C23CC4CC(CC(C4)C2)C3)cc1)NCCCn1cnc([N+](=O)[O-])n1` [6e, 2-[4-(1-Adamantyl)phenyl]-N-[3-(3-nitro-1H-1,2,4-triazol-1-yl)propyl]acetamide], the IC50 stood at 240 ± 10 nM in data set [1]; 6.93 µM in data set [2] (THP-1 derived macrophages, 72 h, 95% CI in brackets, read-out: L. infantum (intracellular amastigotes) IC50 (μM), 95% CI); 140 ± 10 nM in the data set with T. cruzi epimastigotes; 2480 ± 310 nM in data set [3]. The IC90 in data set [1] was determined as 400 ± 10 nM; with T. cruzi epimastigotes, 270 ± 20 nM; in data set [3], 7080 ± 470 nM. Besides, the “S.I. (selectivity index)” value in data set [1] worked out at 96. In data set [2], the inhibition at 10 µM turned out to be 59.5 ± 12%. The cytotoxic concentration (CC50) at 72 h in data set [4] fell in the range of 50000 to 100000 nM.
